These results are taken from paper PMC8908504 (ACS Omega, 2022).

As usually defined, the EC50 is the concentration giving half of the maximal effect. Low values mean an effect from little substance, high ones a need for much substance.

Series [1] addresses KV7.2/3 channel (Homo sapiens, UniProt O43525+O43526). In words: KV7.2/3 channel opening assay (thallium-sensitive fluorescence). It counts as cell-based. The note with it: for EC50 / efficacy: HEK293 cells overexpressing KV7.2/3; for efficacy: relative to maximum signal of flupirtine (=100%); for KV7.2/3 channel opening activity (in words): inactive = no channel opening activity detected up to a concentration of 10 μM. As for the experimental part:
To evaluate the biological activity, the synthesized analogues were tested on HEK293 cells overexpressing the KV7.2/3 channel. The measurement was carried out in a fluorescence-based assay in which a thallium-sensitive dye generated the fluorescence signal. Due to its similarity to potassium, thallium can also pass through KV7 channels. The intensity of the fluorescence signal correlates with the amount of intracellular thallium and thus with the ability of the compounds to open KV7 channels. To determine the potency, the fluorescence intensity was measured as a function of the compound concentration. The efficacy was determined relative to the maximum fluorescence signal induced by flupirtine. For a summary of the activity data, see Table 2.
The cell culture of the KV7.2/3 transfected HEK293 cells (HEK293 KCNQ2/3 cells from SB Drug Discovery, Glasgow, UK) used for the assay and the processing of the obtained data were performed as described in earlier work.[27],[29] Briefly, 60,000 cells/well were seeded into 96-well microtiter plates for fluorescence-based assays (4titude Vision Plate Black 96-Well microtiter plates from ThermoScientic) and incubated for 24 h. After incubation, the medium was changed to 200 μL/well loading buffer containing 5 mmol/L probenecid and incubated for 1 h at room temperature. Subsequently, the test compounds dissolved in DMSO were added to the wells to the desired concentrations and further incubated for 30 min. As a control, the loading buffer with a DMSO concentration corresponding to the substance samples (1% (V/V)) was used. Fluorescence measurements were performed on the Infinite F200 Pro plate reader (Tecan) set at […]/emission wavelengths of 485 and 535 nm, respectively. After measuring the background fluorescence (baseline) for 20 s, a stimulus buffer (25 mmol/L K^+, 15 mmol/L Tl^+) was added just before the fluorescence of each well was measured.
The calculations to obtain dose–response curves were performed in the same manner as in previous investigations.[27],[29] Briefly, the fluorescence intensity was normalized with the baseline signal (F/F0) at each time of signal acquisition. To obtain the corrected negative control, a value of 1 was subtracted from the normalized value of the negative control. Subsequently, the value of the corrected negative control was subtracted from the maximum (corr. F/F0) value of a compound in a defined concentration (corr. ΔF/F0) and then plotted against the logarithmic concentration. The EC50 value was calculated as relative values with GraphPad Prism 6 (La Jolla, CA, USA), that is, the inflection points of the sigmoidal curves. The Emax value, the maximum response, indicates the intrinsic activity of a compound. This value was determined relative to flupirtine (1), where the maximum corr. ΔF/F0 value of flupirtine (1) was defined as 100%. The EC50 and Emax value of a compound is the mean of at least three independent experiments ± standard deviation (SD).

Series [2] has as its system TAMH cells. In words: MTT cell viability assay, TAMH cells. The note with it: for LD50: 50% reduction of viability. From the text:
(§1) In addition to the activity, basic toxicological properties of the newly synthesized compounds were also investigated by using the 3-(4,5-dimethylthiazol-2-yl)-2,5-diphenyltetrazolium bromide (MTT) cell viability assay on mouse TAMH and human HEP-G2 hepatic cell lines (see Table 2). Both cell lines are established for the evaluation of hepatotoxicity.[42],[43]
(§2) The culturing of the mouse liver TAMH and human liver cancer HEP-G2 cell lines and the MTT assay used to evaluate cell viability were carried out as previously described elsewhere in detail.[27],[29] […] The medium in the wells was then replaced with the medium containing the compounds. Control wells contained an equivalent number of cells and 1% (v/v) DMSO. Wells without cells were used to determine the background optical density (OD) and were treated as the control wells. After 24 or 48 h of incubation with the compound, the respective medium was replaced with a fresh medium supplemented with 10% (v/v) of a 2.5 mg/mL solution of MTT. The plates were incubated for 4 h. Then, the culture medium was carefully aspirated off and 50 μL of DMSO was added to each well to dissolve the formazan crystals. The ODs of each well were measured at λ = 570 nm with a SpectraMax 190 microplate reader.
(§3) The calculated T/Ccorr. values were plotted against the log(concentration). The LD50 and LD25 values were determined by using GraphPad Prism 6. […] The values are given as the mean with SD of at least three independent experiments.
A general note: Formazan colour is commonly taken as a measure of viable cells.

Series [3] has as its system HEP-G2 cells. In words: MTT cell viability assay, HEP-G2 cells. The note with it: for LD50: 50% reduction of viability.
Excerpt: as §1, §2, §3

Series [4] is described as follows: log D7.4 estimation by HPLC-based method. It counts as physicochemical. The note with it: HPLC, Phenomenex Luna 5 μm Phenyl-Hexyl column. As for the experimental part:
The log D7.4 values were estimated using a common HPLC-based method in accordance with guideline OPPTS 830.7570 of the United States Environmental Protection Agency (EPA). The HPLC measurements were performed with a Phenomenex Luna 5 μm Phenyl-Hexyl 100 Å column (150 × 4.6 mm). […]. Uracil was used to measure the unretained peak time. To obtain a calibration function, the logarithm of the capacity factors for the reference substances was then plotted against the corresponding log P values taken from the mentioned guideline, which are equivalent to the log D7.4 values for non-ionizable compounds like the reference substances used for calibration. With this calibration function, it was possible to estimate the log D7.4 value from the corresponding retention time for each compound to be tested. For the measurement, 2 mg of the reference substances was each dissolved in 1 mL of methanol. A reference mixture was then obtained by combining 50 μL of each reference solution. The reference mixture was measured before and after the substances to be tested. The mean value from both measurements was used for the calibration line. The substances to be tested were injected as a solution in methanol (2 mg/mL), and the retention time was determined as the mean value from two measurements.

Setting [5] is: concentration for half-maximal channel opening, mean ± SD, ≥3 determinations.
Where [6] appears, read: TAMH cells, MTT assay, 24 h exposure, 25% reduction of viability.
Where [7] appears, read: TAMH cells, MTT assay, 24 h exposure.
Setting [8] is: HEP-G2 cells, MTT assay, 24 h exposure, 25% reduction of viability.
[9] abbreviates: HEP-G2 cells, MTT assay, 24 h exposure.
[10] abbreviates: pH 7.4, HPLC, calibration A1, read-out: logD7.4.
The mark [11] stands for this setting: pH 7.4, HPLC, calibration B1, read-out: logD7.4.
Where [12] appears, read: pH 7.4, HPLC, mean of two calibrations, read-out: logD7.4 (mean).
[13] abbreviates: pH 7.4, estimated by HPLC-based method, pH 7.4, read-out: log D7.4.
[14] abbreviates: pH 7.4, HPLC, calibration C, read-out: logD7.4.
Where [15] appears, read: pH 7.4, HPLC, calibration D, read-out: logD7.4.

SMILES strings stand for the structures. “And” between values parts separate entries of the source, which are not always exact repeats. Identical values can stand only once. Like-named read-outs stand apart in the source and are kept apart here.

Chain of KV7.2/3 channel (O43526 whole entry): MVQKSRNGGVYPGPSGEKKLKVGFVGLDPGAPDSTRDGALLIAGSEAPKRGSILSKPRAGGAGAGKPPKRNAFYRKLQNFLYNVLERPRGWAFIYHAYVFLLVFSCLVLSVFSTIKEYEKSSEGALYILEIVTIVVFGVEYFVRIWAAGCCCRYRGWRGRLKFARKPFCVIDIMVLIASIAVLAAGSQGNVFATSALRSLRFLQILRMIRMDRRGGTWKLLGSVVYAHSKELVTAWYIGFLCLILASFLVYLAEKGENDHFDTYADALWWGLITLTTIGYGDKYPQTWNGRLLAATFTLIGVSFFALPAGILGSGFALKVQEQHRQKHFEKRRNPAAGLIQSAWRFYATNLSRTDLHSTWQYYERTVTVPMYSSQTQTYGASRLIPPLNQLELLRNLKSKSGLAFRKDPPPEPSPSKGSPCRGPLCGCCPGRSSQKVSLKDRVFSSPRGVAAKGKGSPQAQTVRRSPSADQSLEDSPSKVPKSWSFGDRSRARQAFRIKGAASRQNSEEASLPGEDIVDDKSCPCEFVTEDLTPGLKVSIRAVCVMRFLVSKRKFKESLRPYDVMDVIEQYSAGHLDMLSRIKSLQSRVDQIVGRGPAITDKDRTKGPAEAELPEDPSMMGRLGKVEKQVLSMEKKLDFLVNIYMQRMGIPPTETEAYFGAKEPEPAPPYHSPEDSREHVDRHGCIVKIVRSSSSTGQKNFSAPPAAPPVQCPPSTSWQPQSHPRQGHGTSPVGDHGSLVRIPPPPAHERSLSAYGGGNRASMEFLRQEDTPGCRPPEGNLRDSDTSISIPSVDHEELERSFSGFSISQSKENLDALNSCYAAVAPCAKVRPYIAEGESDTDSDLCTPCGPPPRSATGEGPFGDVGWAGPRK
Chain of KV7.2/3 channel (O43525 whole entry): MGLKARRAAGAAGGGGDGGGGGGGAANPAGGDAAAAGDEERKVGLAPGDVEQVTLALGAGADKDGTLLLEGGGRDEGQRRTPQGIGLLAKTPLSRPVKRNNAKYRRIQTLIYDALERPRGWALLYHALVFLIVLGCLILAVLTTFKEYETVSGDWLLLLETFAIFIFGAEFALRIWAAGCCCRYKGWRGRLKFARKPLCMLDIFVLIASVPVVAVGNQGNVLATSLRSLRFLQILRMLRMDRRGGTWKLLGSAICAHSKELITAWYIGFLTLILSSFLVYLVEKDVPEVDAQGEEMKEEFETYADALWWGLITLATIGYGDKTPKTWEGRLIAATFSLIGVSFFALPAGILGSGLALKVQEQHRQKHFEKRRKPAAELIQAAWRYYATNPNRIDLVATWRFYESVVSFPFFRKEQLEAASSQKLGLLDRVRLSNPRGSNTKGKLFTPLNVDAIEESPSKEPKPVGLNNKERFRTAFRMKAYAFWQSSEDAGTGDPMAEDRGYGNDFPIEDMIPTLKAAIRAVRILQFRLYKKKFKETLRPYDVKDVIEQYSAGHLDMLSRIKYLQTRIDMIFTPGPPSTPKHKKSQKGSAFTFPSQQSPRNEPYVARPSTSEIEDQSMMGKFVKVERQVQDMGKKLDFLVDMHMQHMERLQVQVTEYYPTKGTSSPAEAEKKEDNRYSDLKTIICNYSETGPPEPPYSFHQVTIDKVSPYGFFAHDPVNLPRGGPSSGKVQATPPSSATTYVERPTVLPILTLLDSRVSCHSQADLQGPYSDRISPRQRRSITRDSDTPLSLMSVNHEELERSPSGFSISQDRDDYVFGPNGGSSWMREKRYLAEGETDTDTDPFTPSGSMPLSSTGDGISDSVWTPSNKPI

As for `CCCCNC(=O)c1c(C)cc(NCc2ccc(F)cc2)nc1OC` [36a, N-Butyl-6-[(4-fluorobenzyl)amino]-2-methoxy-4-methylnicotinamide], the “loss of potency (factor)” value in series [1] (36a compared with 36b) was 11. The compound further yielded a concentration giving a half-maximal response (EC50) in series [1] (setting [5]) of 3.51 ± 0.724 µM. For the same compound, the efficacy in series [1] was 65% and 65 ± 9%. The LD25 in series [2] (setting [6]) was determined as 17 ± 1 µM; in series [3] (setting [8]), 24 ± 1 µM. Moreover, the LD50 in series [2] (setting [7]) and in series [3] (setting [9]) was >63 µM in each case. In addition, the chromatographic logD in series [4] (setting [10]) is 3.7; in series [4] (setting [11]), 3.66; in series [4] (setting [12]) it was 3.7; in series [4] (setting [13]) it was 3.7.
As to `CCCCNC(=O)c1ccc(NCc2ccc(F)cc2)nc1N` [compound 21, 2-Amino-N-butyl-6-[(4-fluorobenzyl)amino]nicotinamide], in series [1] (footnote e), the EC50 was > 10 µM. Further, in series [1], the “KV7.2/3 channel opening activity (in words)” value was “inactive”. For the same compound, the LD25 in series [2] (setting [6]) came out at 145 ± 7 µM; in series [3] (setting [8]) it was 148 ± 11 µM. Besides, the results for the LD50 in series [2] (setting [7]) and in series [3] (setting [9]) were 149 ± 7 µM and 149 ± 11 µM, respectively. Also, the chromatographic logD in series [4] (setting [10]) was 2.88; in series [4] (setting [11]), 2.86; in series [4] (setting [12]) it was 2.9; in series [4] (setting [13]), 2.9.
With `CC(C)CNC(=O)c1ccc(NCc2ccc(F)cc2)cc1N` [compound 17, 2-Amino-4-[(4-fluorobenzyl)amino]-N-isobutylbenzamide], in series [1] (footnote e), the concentration for a half-maximal effect (EC50) is > 10 µM. Also, the “KV7.2/3 channel opening activity (in words)” value in series [1] was “inactive”. Besides, the figures for the LD25 in series [2] (setting [6]) and in series [3] (setting [8]) were >125 µM and 56 ± 40 µM, respectively. Further, the LD50 in series [2] (setting [7]) and in series [3] (setting [9]) was >125 µM each time. Besides, the chromatographic logD is 2.75 in series [4] (setting [14]), 2.75 in series [4] (setting [15]), 2.7 in series [4] (setting [12]) and 2.7 in series [4] (setting [13]).
As to `COc1cc(NCc2ccc(F)cc2)ccc1C(=O)NCC(C)C` [28a, 4-[(4-Fluorobenzyl)amino]-N-isobutyl-2-methoxybenzamide], the EC50 in series [1] (footnote e) was > 10 µM. Besides, in series [1], the “KV7.2/3 channel opening activity (in words)” value was “inactive”. In addition, the LD25 in series [2] (setting [6]) amounted to 43 ± 27 µM; in series [3] (setting [8]) it was 31 ± 13 µM. The figures for the LD50 in series [2] (setting [7]) and in series [3] (setting [9]) were >63 µM and 42 ± 7 µM, respectively. The chromatographic logD is 3.79 in series [4] (setting [14]), 3.79 in series [4] (setting [15]), 3.8 in series [4] (setting [12]) and 3.8 in series [4] (setting [13]).
In the case of `Cc1cc(NCc2ccc(F)cc2)nc(N2CCOCC2)c1CNC(=O)OCC(C)C` [compound 66, Isobutyl ({6-[(4-Fluorobenzyl)amino]-4-methyl-2-morpholinopyridin-3-yl}methyl)carbamate], the EC50 in series [1] (footnote e) is > 10 µM. In addition, the “KV7.2/3 channel opening activity (in words)” value in series [1] is “inactive”. In addition, the results for the LD25 in series [2] (setting [6]) and in series [3] (setting [8]) were 52 ± 61 µM and 24 ± 27 µM, respectively. The LD50 in series [2] (setting [7]) and in series [3] (setting [9]) was >125 µM in each case. For the same compound, the chromatographic logD in series [4] (pH 7.4, HPLC, calibration A2, read-out: logD7.4) is 4.75; in series [4] (pH 7.4, HPLC, calibration B2, read-out: logD7.4), 4.75; in series [4] (setting [12]) it was 4.8; in series [4] (setting [13]), 4.8.
For the compound `CCOC(=O)Nc1ccc(NCc2ccc(F)cc2)nc1N` [compound 1, flupirtine, reference compound], the concentration for a half-maximal effect (EC50) in series [1] (setting [5]) came to 1.84 ± 0.844 µM. The compound further displayed an efficacy in series [1] of 100%. For the same compound, the LD50 in series [2] (setting [7]) was 487 ± 51 µM; in series [2] (TAMH cells, MTT assay, 24 h exposure, listed as flupirtine), ~500 µM; in series [3] (setting [9]), 547 ± 111 µM; in series [3] (HEP-G2 cells, MTT assay, 24 h exposure, listed as flupirtine) it was ~500 µM. Further, the LD25 amounted to 103 ± 47 µM in series [2] (mouse, 24 h) and 74 ± 40 µM in series [3] (human, 24 h). For the same compound, the chromatographic logD was 2.1 in series [4] (setting [10]), 2.06 in series [4] (setting [11]), 2.1 in series [4] (setting [12]) and 2.1 in series [4] (setting [13]).
Regarding `CCCNC(=O)c1ccc(NCc2ccc(F)cc2)cc1CC.Cl` [compound 47, 2-Ethyl-4-[(4-fluorobenzyl)amino]-N-propylbenzamide hydrochloride], in series [1] (footnote e), the EC50 was > 10 µM. Besides, in series [1], the “KV7.2/3 channel opening activity (in words)” value is given as “did not result in any improvement in terms of activity”. For the same compound, the LD50 was >125 µM in series [2] (setting [7]) and 77 ± 15 µM in series [3] (setting [9]). This compound also displayed an LD25 in series [3] (setting [8]) of 60 ± 9 µM. Also, the chromatographic logD was 3.24 in series [4] (setting [14]), 3.23 in series [4] (setting [15]), 3.2 in series [4] (setting [12]) and 3.2 in series [4] (setting [13]).
For the compound `Cc1cc(N2CCOCC2)nc(N)c1CNC(=O)Cc1cc(F)cc(F)c1` [compound 61, N-[(2-Amino-4-methyl-6-morpholinopyridin-3-yl)methyl]-2-(3,5-difluorophenyl)acetamide], the EC50 in series [1] (footnote e) was > 10 µM. Besides, in series [1], the “KV7.2/3 channel opening activity (in words)” value is “inactive”. Further, the LD25 in series [2] (setting [6]) and in series [3] (setting [8]) was >63 µM throughout. Also, the LD50 in series [2] (setting [7]) and in series [3] (setting [9]) was >63 µM each time. The chromatographic logD is 2.57 in series [4] (setting [10]), 2.58 in series [4] (setting [11]), 2.6 in series [4] (setting [12]) and 2.6 in series [4] (setting [13]).
